Experimental data as given in publication PMC9098913, “In vitro reconstitution of Escherichia coli divisome activation” (Nature Communications, 2022).

Test system: FtsA self-interaction
Assay: FRET self-interaction of His-tagged FtsAs (and His-SUMO control) on Tris-NTA membranes
Type: binding, E. coli
Method: To study colocalization of His-tagged variants of FtsA, 0.5–1 µM of Cy5 labelled His-tagged FtsAs were added to the chamber, incubated for 20 min and washed 6x with reaction buffer. […] To control the density of membrane-bound FtsA, SUVs without and with Tris-NTA lipids were mixed to obtain the respective Tris-NTA concentrations. To perform FRET/FRAP experiments, equimolar concentrations of Cy3 and Cy5 labelled His-tagged FtsAs (total 0.5–1 µM) or His-SUMO-Cys were added to a chamber and treated as above. […] FRAP experiments were performed as described before.
Bleaching the acceptor dye leads to an increase in the donor intensity, which can be used to quantify the Foerster Resonance energy transfer (FRET)[48]. FRET efficiency was quantified with E%=Ipost/Ipost+Ipre⋅100 , where Ipost is the intensity of the […] and Ipre is the […]. […] To extract the contribution of both processes, we adjusted a routine recently published by Gerganova et al.[33]. In short, the code provides the contribution of both modes of recovery by analysing the shape of the fluorescence recovery profile. […] Contribution of diffusion leads to a change of the slope of the outer borders of the bleached region (S4h right). Thus, by measuring the change of the slope of the border recovery, diffusion and simple on/off binding can be distinguished. We developed “FRAPdiff”, a graphical user interface, which uses the original fit routine by David Rutkowski. It can be used directly on.tiff movies with annotated bleach regions as ImageJ ROIs. In addition, we added optional bleach correction, user selectable projection axis (x or y), and optional mirroring of the recovery profiles, if bleaching was not symmetric. The original fit routine for estimating the recovery and diffusion dynamics can be found at https://github.com/davidmrutkowski/1DReflectingDiffusion. FRAPdiff is available at 10.5281/zenodo.6400639[49] under the GPLv3 open-source license.

Question: Which results are given for “FtsA-His6: FtsA WT (1-405) with amphipathic helix replaced by C-terminal His-tag”?
Answer: FRET efficiency (0.1% Tris NTA, + FtsZ; Exp1): 3.78%; FRET efficiency (0.1% Tris NTA, + FtsZ; Exp2): 0.99%; FRET efficiency (0.1% Tris NTA, + FtsZ; mean, n = 2): 2.39%; FRET efficiency (0.1% Tris NTA, without FtsZ; Exp1): 3.14%; FRET efficiency (0.1% Tris NTA, without FtsZ; Exp2): 0.59%; FRET efficiency (0.1% Tris NTA, without FtsZ; mean, n = 2): 1.87%; FRET efficiency (0.4% Tris NTA; + FtsZ; Exp1): 6.34%; FRET efficiency (0.4% Tris NTA; + FtsZ; Exp2): 13.91%; FRET efficiency (0.4% Tris NTA; + FtsZ; Mean, n = 2): 10.12%; FRET efficiency (0.4% Tris NTA; without FtsZ; Exp1): 8.25%; FRET efficiency (0.4% Tris NTA; without FtsZ; Exp2): 10.75%; FRET efficiency (0.4% Tris NTA; without FtsZ; Mean, n = 2): 9.50%; FRET efficiency (0.6% Tris NTA; + FtsZ; Exp1): 12.72%; FRET efficiency (0.6% Tris NTA; + FtsZ; Exp2): 16.89%; FRET efficiency (0.6% Tris NTA; + FtsZ; Exp3): 21.31%; FRET efficiency (0.6% Tris NTA; + FtsZ; Mean, n = 3): 16.97%; FRET efficiency (0.6% Tris NTA; without FtsZ; Exp1): 13.98%; FRET efficiency (0.6% Tris NTA; without FtsZ; Exp2): 15.14%; FRET efficiency (0.6% Tris NTA; without FtsZ; Exp3): 19.21%; FRET efficiency (0.6% Tris NTA; without FtsZ; Mean, n = 3 (His6-SUMO n = 2)): 16.11%; FRET efficiency (0.8% Tris NTA; + FtsZ; Exp1): 13.61%; FRET efficiency (0.8% Tris NTA; + FtsZ; Exp2): 19.13%; FRET efficiency (0.8% Tris NTA; + FtsZ; Exp3): 15.44%; FRET efficiency (0.8% Tris NTA; + FtsZ; Mean, n = 3): 16.06%; FRET efficiency (0.8% Tris NTA; without FtsZ; Exp1): 14.15%; FRET efficiency (0.8% Tris NTA; without FtsZ; Exp2): 18.41%; FRET efficiency (0.8% Tris NTA; without FtsZ; Exp3): 13.88%; FRET efficiency (0.8% Tris NTA; without FtsZ; Mean, n = 3 (His6-SUMO n = 2)): 15.48%; FRET efficiency (1% Tris NTA; + FtsZ; Exp1): 18.34%; FRET efficiency (1% Tris NTA; + FtsZ; Exp2): 21.19%; FRET efficiency (1% Tris NTA; + FtsZ; Exp3): 19.01%; FRET efficiency (1% Tris NTA; + FtsZ; Mean, n = 3 (R286W-His6 n = 4)): 19.51%; FRET efficiency (1% Tris NTA; without FtsZ; Exp1): 16.93%; FRET efficiency (1% Tris NTA; without FtsZ; Exp2): 19.88%; FRET efficiency (1% Tris NTA; without FtsZ; Exp3): 16.24%; FRET efficiency (1% Tris NTA; without FtsZ; Mean, n = 3 (R286W-His6 n = 4)): 17.68%; FRET efficiency (2% Tris NTA; + FtsZ; Exp1): 32.05%; FRET efficiency (2% Tris NTA; + FtsZ; Exp2): 31.95%; FRET efficiency (2% Tris NTA; + FtsZ; Mean, n = 2): 32.00%; FRET efficiency (2% Tris NTA; without FtsZ; Exp1): 32.49%; FRET efficiency (2% Tris NTA; without FtsZ; Exp2): 23.34%; FRET efficiency (2% Tris NTA; without FtsZ; Mean, n = 2): 27.92%; FRET efficiency (Tris 0.40 %, + FtsZ; mean): 10.12%; FRET efficiency (Tris 0.40 %, without FtsZ; mean): 9.50%; FRET efficiency (Tris 0.60 %, + FtsZ; mean): 16.97%; FRET efficiency (Tris 0.60 %, without FtsZ; mean): 16.11%; FRET efficiency (Tris 0.80 %, + FtsZ; mean): 16.06%; FRET efficiency (Tris 0.80 %, without FtsZ; mean): 15.48%; FRET efficiency (Tris 1.00 %, + FtsZ; mean): 19.51%; FRET efficiency (Tris 1.00 %, without FtsZ; mean): 17.68%; FRET efficiency (Tris 2.00 %, + FtsZ; mean): 32.00%; FRET efficiency (Tris 2.00 %, without FtsZ; mean): 27.92%; FRET efficiency (Tris […], + FtsZ; mean): 28.93%; FRET efficiency (Tris […], without FtsZ; mean): 25.95%; FRET efficiency ([…] Tris NTA, + FtsZ; Exp1): 2.38%; FRET efficiency ([…] Tris NTA, + FtsZ; Exp2): 10.40%; FRET efficiency ([…] Tris NTA, + FtsZ; mean, n = 2): 6.39%; FRET efficiency ([…] Tris NTA, without FtsZ; Exp1): 3.80%; FRET efficiency ([…] Tris NTA, without FtsZ; Exp2): 9.45%; FRET efficiency ([…] Tris NTA, without FtsZ; mean, n = 2; listed as FtsA WT-His6): 6.62%; FRET efficiency ([…] Tris NTA, without FtsZ; mean, n = 2; listed as WT-His6): 6.63%; FRET efficiency ([…] Tris NTA; + FtsZ; Exp1): 34.73%; FRET efficiency ([…] Tris NTA; + FtsZ; Exp2): 27.23%; FRET efficiency ([…] Tris NTA; + FtsZ; Exp3): 24.81%; FRET efficiency ([…] Tris NTA; + FtsZ; Mean, n = 3): 28.93%; FRET efficiency ([…] Tris NTA; without FtsZ; Exp1): 28.26%; FRET efficiency ([…] Tris NTA; without FtsZ; Exp2): 26.94%; FRET efficiency ([…] Tris NTA; without FtsZ; Exp3): 22.66%; FRET efficiency ([…] Tris NTA; without FtsZ; Mean, n = 3): 25.95%; FRET efficiency ([…] Tris-NTA; + N (FtsNcyto); mean): 26.95%; FRET efficiency ([…] Tris-NTA; + N/Z (FtsNcyto and FtsZ); mean): 24.12%; FRET efficiency ([…] Tris-NTA; + N/Z; Exp. 1): 22.20%; FRET efficiency ([…] Tris-NTA; + N/Z; Exp. 2): 29.86%; FRET efficiency ([…] Tris-NTA; + N/Z; Exp. 3): 20.31%; FRET efficiency ([…] Tris-NTA; + N; Exp. 1): 28.94%; FRET efficiency ([…] Tris-NTA; + N; Exp. 2): 24.96%; FRET efficiency ([…] Tris-NTA; + N; Exp. 3): 26.96%; FRET efficiency ([…] Tris-NTA; + Z (FtsZ); mean): 27.70%; FRET efficiency ([…] Tris-NTA; + Z; Exp. 1): 34.73%; FRET efficiency ([…] Tris-NTA; + Z; Exp. 2): 27.23%; FRET efficiency ([…] Tris-NTA; + Z; Exp. 3): 24.81%; FRET efficiency ([…] Tris-NTA; + Z; Exp. 4): 24.02%; FRET efficiency ([…] Tris-NTA; alone; Exp. 1): 28.26%; FRET efficiency ([…] Tris-NTA; alone; Exp. 2): 26.94%; FRET efficiency ([…] Tris-NTA; alone; Exp. 3): 22.66%; FRET efficiency ([…] Tris-NTA; alone; Exp. 4): 20.84%; FRET efficiency ([…] Tris-NTA; alone; mean): 24.68%
